{"source": "patent US5225543A", "about": "“Receptors method for purification of G protein-linked” (priority 1991, dated 1993)", "key": {"[1]": {"biological_target": "T1, SRIF receptor (GH4 C1 membranes) (Rattus norvegicus, UniProt P30680)", "T1 construct": "GH4 C1 rat pituitary tumor cells; endogenous in cells; host or cells: GH4 C1 rat pituitary tumor cells (isolated membranes)", "experiment": "Scatchard analysis of [^125 I]-labelled ligand binding to GH4 C1 membranes (FIG. 5)", "conditions": "read-out: dissociation constant (KD)", "protocol": "1. Standard Binding Assays--Binding assays are done in a binding buffer containing 50 mM HEPES (pH 7.4), 0.5% BSA and 5 mM MgCl2. The standard assay for [^125 I]SRIF analog binding to GH4 CL membranes, done in 96 well microtiter plates (Dynatech Immulon II Removawell plates), is carried out as follows: 1. Radioligand is diluted in binding buffer+PMSF/Baci to the desired cpm per vol. of 50 μl and then 50 μl aliquots are added to the wells. For non-specific binding samples, 5 μl of 40 μM cold S14 is also added per well. 2. Binding is initiated by adding 150 μl per well of membrane diluted to the desired concentration (10-30 ug membrane protein/well) in binding buffer+PMSF/Baci. Plates are then covered with Linbro mylar plate sealers (Flow Labs) and placed on a Dynatech Microshaker II and binding is allowed to proceed at room temperature for 1-2 hours. Binding is stopped by centrifuging the plate for 15 minutes at 2,000×g. The supernatants are dumped off and membrane pellets washed once by addition of 200 μl of ice cold binding buffer, brief shaking and recentrifugation. Finally the individual wells are placed in 12×75 mm tubes and counted in an LKB Gammamaster counter (78% efficiency). Specific binding by this method is identical to that measured when free ligand is removed by rapid (3-5 seconds) filtration and washing on polyethyleneimine-coated glass fiber filters.\n3. […]"}, "[2]": {"system": "somatostatin receptor (GH4 C1 membranes)", "experiment": "Binding, CHAPS solubilization and recovery of SRIF receptor:[^125 I]Tyr11-S14 complex (FIG. 1, Table 1)", "design": "species or system rat", "conditions": "for CPM recovered, B. Nonspecific: 10^-6 M cold S14; for CPM recovered, A. Total: without cold S14", "protocol": "FIG. 1 illustrates separation of receptor-bound and free [^125 I]Tyr11-S14. Radioligand is bound to GH4 C1 membranes as described in \"Materials and Methods\". The binding incubations contain 2 mg membrane protein and 6×10^6 cpm of radioligand in 8 ml. A non-specific binding sample is identical except for the addition of 1 uM cold S14. Initial cpm bound were 1.43×10^6 (total) and 0.65×10^6 (non-specific). After the binding step, membranes are resuspended at 1 […] in the presence of 1% CHAPS detergent in a buffer containing 25 mM Tris (pH 8), 10% glycerol and 0.2 mM CaCl2 (solubilization buffer). A protease inhibitor cocktail (\"100×4 pase\" described in \"Materials and Methods\") is also added as 1% of final volume. Solubilization is allowed to proceed for 1 hour on ice, and then the mixture is centrifuged for 30 minutes at 100,000×g. CPM in the 100,000×g supernatant were 0.61×10^6 (total) and 0.29×10^6 (non-specific). Free [^125 I]Tyr11-S14 is added to the non-specific binding sample to give equal cpm in the two samples. Then 0.25 ml aliquots of each supernatant ([…]) are loaded onto 0.8×13 cm columns of Sephadex G-50. The columns are eluted at a flow rate of 0.7 ml/min with solubilization buffer + 1% BSA. 0.18 ml fractions are collected and counted for radioactivity.\n0.18 ml samples are collected. […] The mixture is held on ice for 15 minutes.\n[^125 I]Tyr11-S14 is bound to GH4 C1 membranes as described above (\"Methods: Receptor Binding Methods, 4.\"), except that these binding assays contain 2 mg membrane protein in 8 ml (0.25 mg membrane protein/ml). Radioligand is […]. A non-specific binding sample is identical except for the addition of 1 uM cold S14. Initial cpm bound is 1.43×10^6 (total) and 0.65×10^6 (nonspecific). After the binding step, membranes are solubilized in solubilization buffer containing 0.2 mM CaCl2 and 1% CHAPS (\"Methods: Membrane Solubilization\"). CPM in the 100,000×g supernatants are 0.61×10^6 (total) and 0.29×10^6 (nonspecific). Free [^125 I]Tyr11-S14 is added to the nonspecific binding sample to give equal cpm in the two samples. Then 0.25 ml aliquots of each supernatant (75-80,000 cpm) are loaded onto 0.8×13 cm columns of Sephadex G-50. The columns are eluted as described in \"Methods: Assay of Solubilized Receptors, 1.\" and the fractions counted for radioactivity.\nA peak of high MW material eluting in the column void volume (peak I; 34% of total cpm) contain specifically bound radioactivity. […] Peak II in FIG. 1 represents free [^125 I]Tyr11-S14, and is the major peak in the nonspecific binding sample. In FIG. 1 it is important to note that just before applying samples to the columns, free [^125 I]Tyr11-S14 is added to the non-specific binding sample to equalize the cpm in the two samples. […] The GFB/PEI method is used in subsequent experiments.\n0.25 ml samples containing solubilized R:L complex, from the preparation described in FIG. 1 are separated from free radioligand either by: (1) chromatography on Sephadex G-50 (see FIG. 1), (2) Precipitation with polyethyleneglycol+bovine gamma globulin with collection of the precipitates on GFB filters or (3) adsorption on polyethyleneimine-coated,GFB filters (for methods 2 and 3 see \"Methods: Assay of Solubilized Receptors, 2 and 3\"). Radioactivity recovered in peak I (Method 1) or on filters (Methods 2 and 3) is compared in the Table."}, "[3]": {"system": "streptavidin (SA-agarose)", "experiment": "Binding of [^125 I]-labelled biotinyl-SRIFs (solubilized R:L complex) to immobilized streptavidin (Table 3)", "protocol": "3. Adsorption of solubilized R:L complex to streptavidin. Immobilized streptavidin (streptavidin cross-linked to 6% beaded agarose, Pierce Chemical Co.; \"SA-agarose\") is washed in solubilization buffer and added to the solubilized membranes as 1/30 of the final volume. This mixture is incubated with constant stirring by end-over-end rotation for 4-5 hours at 4°-10° C. Then the mixture is applied to a column and the non-bound material is washed through. Binding of radioligand to SA-agarose is determined by comparing cpm in the 100,000×g supernatant with that in the column effluent after adsorption to SA-agarose. Finally, the column is washed with 12-15 column volumes of solubilization buffer+0.15% deoxycholate:lysolecithin+1/500 (vol/vol) 100×4pase.\nTo compare the three biotinyl-SRIF analogs in terms of binding to streptavidin, the following experiment is done. [^125 I]Bio-SRIF analogs are bound to GH4 C1 membranes as described (\"Methods: Receptor Binding Methods, 4\"). All radioligands are at a concentration of 0.77×10^6 cpm/ml. For each radioligand, a control for non-specific binding is done in the presence of 1 uM cold S14. CPM bound/mg membrane protein after the binding step are as follows: [^125 I]Bio-6C-S14=755,020 (total) and 43,361 (non-specific); [^125 I]Bio-12C=S14=633,134 (total) and 39,538 (nonspecific); [^125 I]Bio-S28=1,065,512 (total) and 35,049 (nonspecific). The membrane pellets are solubilized in solubilization buffer containing 0.15% deoxycholate:lysolecithin and 0.2 mM MgCl2 as described (\"Methods: Membrane Solubilization\"). […] One ml samples of solubilized membranes are incubated with 0.05 ml vols of streptavidin-agarose at 4°-10° C. on a tube rotator for the times shown. Non-specific binding samples are not done due to the low levels of non-specific binding. At the times shown, the SA beads are spun down and 100 ul samples of supernatant are counted. The cpm are compared to initial cpm in the sample and % binding to SA is calculated from this. Also, it should be noted that binding of cpm from the supernatant is considered to parallel the binding of R:L complex. Several observations confirm that this is a valid assumption.\nCPM are determined for 100 ul samples of initial 100,000×g supernatant (containing soluble R:L complex) and supernatant after incubation with SA-agarose for times shown."}, "[4]": {"biological_target": "T1, SRIF receptor (GH4 C1 membranes)", "experiment": "Binding of [^125 I] biotinyl-SRIF ligands to GH4 C1 membranes (CPM bound/mg)", "conditions": "radioligand 0.77×10^6 cpm/ml", "protocol": "4. Larger scale binding assays to obtain membrane pellets for studies on solubilization of receptor:ligand complex and for receptor purification are also carried out. These are identical to the standard assays except that: (a) Binding is carried out in polypropylene tubes in volumes from 1-250 ml, with the wash step being done in the same volume as initially used for binding, (b) Concentration of membrane protein is always 0.5 mg/ml, (c) For receptor purification, BSA concentration in the binding buffer is reduced to 0.25% and the wash step is done with binding buffer without BSA. This is to reduce BSA contamination of the purified receptor.\nTo compare the three biotinyl-SRIF analogs in terms of binding to streptavidin, the following experiment is done. [^125 I]Bio-SRIF analogs are bound to GH4 C1 membranes as described (\"Methods: Receptor Binding Methods, 4\"). All radioligands are at a concentration of 0.77×10^6 cpm/ml. For each radioligand, a control for non-specific binding is done in the presence of 1 uM cold S14. […] At the times shown, the SA beads are spun down and 100 ul samples of supernatant are counted. The cpm are compared to initial cpm in the sample and % binding to SA is calculated from this. […]"}, "[5]": {"conditions": "GFB/PEI filters, triplicate, SE 5%"}, "[6]": {"conditions": "PEG precipitation, triplicate, SE 5%"}}, "note": "Where no end group is shown, it is not given here. The star is where a group is joined. 125I = [125I]*", "data": [{"substance": "[^125 I]Tyr11-S14: non-biotinylated radioligand, [^125 I]Tyr11-S14 (AGCKNFFWKTY(125I)TSC; ends and bridges not checked; UniProt P61278 103-116, looked up, variant F11Y)", "values": [{"measurement": "Kd", "setting": "[1]", "result": 0.1, "unit": "nM"}, {"measurement": "Initial cpm bound, nonspecific", "setting": "[2]; 2 mg membrane protein in 8 ml, plus 1 uM cold S14", "result": "0.65×10^6 cpm"}, {"measurement": "Initial cpm bound, total", "setting": "[2]; 2 mg membrane protein in 8 ml, total", "result": "1.43×10^6 cpm"}, {"measurement": "peak I (void volume) share of total cpm", "setting": "[2]; 1% CHAPS, Sephadex G-50", "result": "34 % of total cpm"}, {"measurement": "specifically bound ligand recovered, of initial specifically bound cpm on intact membranes", "setting": "[2]; 1% CHAPS, Sephadex G-50 peak I", "result": 11, "unit": "%"}, {"measurement": "CPM in 100,000×g supernatant, nonspecific", "setting": "[2]; 1% CHAPS, plus 1 uM cold S14", "result": "0.29×10^6 CPM"}, {"measurement": "CPM in 100,000×g supernatant, total", "setting": "[2]; 1% CHAPS, total", "result": "0.61×10^6 CPM"}, {"measurement": "Specifically bound ligand recovered (A-B)", "setting": "[2]; GFB/PEI filters", "result": "20,340 CPM"}, {"measurement": "CPM recovered, B. Nonspecific", "setting": "[2]; [5]", "result": "7,193 CPM"}, {"measurement": "CPM recovered, A. Total", "setting": "[2]; [5]", "result": "27,533 CPM"}, {"measurement": "Specifically bound ligand recovered (A-B)", "setting": "[2]; PEG precipitation", "result": "17,272 CPM"}, {"measurement": "CPM recovered, B. Nonspecific", "setting": "[2]; [6]", "result": "7,803 CPM"}, {"measurement": "CPM recovered, A. Total", "setting": "[2]; [6]", "result": "23,075 CPM"}, {"measurement": "Specifically bound ligand recovered (A-B)", "setting": "[2]; Sephadex G-50", "result": "16,840 CPM"}, {"measurement": "CPM recovered, B. Nonspecific", "setting": "[2]; Sephadex G-50", "result": "9,104 CPM"}, {"measurement": "CPM recovered, A. Total", "setting": "[2]; Sephadex G-50", "result": "23,944 CPM"}]}, {"substance": "biotinyl-NH(Leu8, D-Trp22, [^125 I]Tyr25)SRIF [[^125 I]Bio-S28]", "values": [{"measurement": "binding of solubilized R:L complex to immobilized streptavidin vs Bio-6C-S14 and Bio-12C-S14", "setting": "[3]", "result": "binds somewhat better"}, {"measurement": "Initial CPM", "setting": "[3]; 100 ul of initial 100,000×g supernatant", "result": "92,534 CPM"}, {"measurement": "% Binding of radioligand to SA-agarose, 1 hour", "setting": "[3]; 1 hour", "result": 66, "unit": "%"}, {"measurement": "% Binding of radioligand to SA-agarose, 3 hours", "setting": "[3]; 3 hours", "result": 82, "unit": "%"}, {"measurement": "Non-bound CPM, 1 hour", "setting": "[3]; supernatant after 1 hour with SA-agarose", "result": "31,645 CPM"}, {"measurement": "Non-bound CPM, 3 hours", "setting": "[3]; supernatant after 3 hours with SA-agarose", "result": "17,098 CPM"}, {"measurement": "Kd", "setting": "[1]", "result": 0.2, "unit": "nM"}, {"measurement": "CPM bound/mg membrane protein, nonspecific", "setting": "[4]; in presence of 1 uM cold S14", "result": "35,049 CPM bound/mg membrane protein"}, {"measurement": "CPM bound/mg membrane protein, total", "setting": "[4]; total", "result": "1,065,512 CPM bound/mg membrane protein"}]}]}
